{"source": "patent US9216957B2", "about": "“Androgen receptor antagonists and uses thereof” (SUZHOU KINTOR PHARMACEUTICALS, INC., priority 2011, dated 2015)"}
{"test_system": "Prostate-specific antigen (PSA) production in LNCaP cells", "test": "PSA Assay (inhibition of PSA production in prostate cancer cells, ELISA)", "type": "cell-based, human", "conditions": "Homo sapiens, LNCaP, 72 h, read-out: LNCAP IC50 (uM), inhibition of PSA production, LNCaP cells, R1881 1 ng/ml, three days, seven point assay", "protocol": "PSA Assay (Inhibition Test of the Compound of the Present Invention on Prostate-Specific Antigen (PSA) Production in Various Prostate Cancer Cells).\nAndrogen dependent LNCaP cells were purchased from the American Type Culture Collection (ATCC, Manassas, Va.). These cells were grown in RPMI 1640 medium supplemented with 10% fetal bovine serum (FBS), 100 U/mL penicillin, 100 μg/mL streptomycin, and 0.25 μg/mL amphotericin B. The cells were maintained at 37° C. and 5% CO2. LNCaP cells between passage 20 and 35 were used for experiments. LNCaP is a hormone sensitive cell line. For the PSA assay, human prostate cancer cells LNCaP were seeded in a 96-well plate at a concentration of 5000 cells/100 μl/well. On the following day, Methyltrienolone (R1881, AR agonist) (final concentration 1 ng/ml), test compounds or bicalutamide (Casodex®, AstraZeneca) (final concentration 0.005 to 20 μM) were added. Three days after the addition, the concentration of PSA in the supernatant of the culture solution was measured by ELISA. ELISAs for human PSA in culture medium were performed using the ultra-sensitive assay procedure and reagents in the Active™ PSA assay kit (Diagnostic Systems Laboratories Inc., Webster, Tex.). Culture medium and standards (200 μl/well) were incubated in antibody-coated plates for 2 h at room temperature on a Titer plate shaker at 500-600 rpm. Wells were then washed five times. The HRP conjugate was diluted 1:20 with assay buffer, and 100 μl was added to all wells. The plates were incubated for 30 min at room temperature on the shaker and washed as before, and 100 μl TMB (3,3′,5,5′-tetramethylbenzidine, 0.4 g/l) was added. The plates were incubated for 10 min on the shaker, and the reaction was terminated with 100 μl stop solution. The plates were read using a plate reader at 450 nm with a 650 nm reference filter. PSA levels were normalized for differences in growth of LNCaP cells following various treatments as determined by the MTS assay. IC50 of PSA was calculated based on a seven point assay (concentrations of tested compound) and expressed as micromolar (uM).", "units": {"IC50": "µM"}}
{"smiles": "CC1(C)C(=O)N(c2ccc(C#N)c(Cl)c2F)C(=S)N1c1ccc(CCCC#N)nc1", "note": "[Example 37, 2-chloro-4-(3-(6-(3-cyanopropyl)pyridin-3-yl)-4,4-dimethyl-5-oxo-2-thioxoimidazolidin-1-yl)-3-fluorobenzonitrile]", "IC50": 0.65}
{"smiles": "CNC(=O)C(C)(C)CCc1ccc(N2C(=S)N(c3ccc(C#N)c(Cl)c3F)C(=O)C23CCC3)cc1", "note": "[Example 27, 4-{4-[7-(3-Chloro-4-cyano-2-fluoro-phenyl)-8-oxo-6-thioxo-5,7-diaza-spiro[3.4]oct-5-yl]-phenyl}-2,2,N-trimethyl-butyramide]", "IC50": 0.47}
{"smiles": "CC1(C)C(=O)N(c2ccc(C#N)c(C(F)(F)F)c2F)C(=S)N1c1ccc(CCCc2ncc[nH]2)cc1", "note": "[Example 19, 4-(3-(4-(3-(1H-imidazol-2-yl)propyl)phenyl)-4,4-dimethyl-5-oxo-2-thioxoimidazolidin-1-yl)-3-fluoro-2-(trifluoromethyl)benzonitrile]", "IC50": 0.76}
{"smiles": "CNC(=O)CCCc1ccc(N2C(=S)N(c3ccc(C#N)c(C(F)(F)F)c3F)C(=O)C2(C)C)cc1F", "note": "[Example 44, 4-{4-[3-(4-Cyano-2-fluoro-3-trifluoromethyl-phenyl)-5,5-dimethyl-4-oxo-2-thioxo-imidazolidin-1-yl]-2-fluoro-phenyl}-N-methyl-butyramide]", "IC50": 0.11}
{"smiles": "COc1c(C#N)ccc(N2C(=O)C3(CCC3)N(c3ccc(CCCC#N)c(F)c3)C2=S)c1F", "note": "[Example 32, 4-(5-(4-(3-cyanopropyl)-3-fluorophenyl)-8-oxo-6-thioxo-5,7-diazaspiro[3.4]octan-7-yl)-3-fluoro-2-methoxybenzonitrile]", "IC50": 0.36}
{"smiles": "COc1c(C#N)ccc(N2C(=O)C(C)(C)N(c3ccc(CCCc4ncc[nH]4)cc3)C2=S)c1F", "note": "[Example 21, 3-Fluoro-4-(3-{4-[3-(1H-imidazol-2-yl)-propyl]-phenyl}-4,4-dimethyl-5-oxo-2-thioxo-imidazolidin-1-yl)-2-methoxy-benzonitrile]", "IC50": 1.83}
{"smiles": "COc1c(C#N)ccc(N2C(=O)C(C)(C)N(c3ccc(CCCC(=O)N(C)C)cc3)C2=S)c1F", "note": "[Example 13, 4-{4-[3-(4-Cyano-2-fluoro-3-methoxy-phenyl)-5,5-dimethyl-4-oxo-2-thioxo-imidazolidin-1-yl]-phenyl}-N,N-dimethyl-butyramide]", "IC50": 1.06}
{"smiles": "CC1(C)C(=O)N(c2ccc(C#N)c(C(F)(F)F)c2F)C(=S)N1c1ccc(CCCC(=O)N2CCC(O)CC2)c(F)c1", "note": "[Example 51, 3-Fluoro-4-(3-{3-fluoro-4-[4-(4-hydroxy-piperidin-1-yl)-4-oxo-butyl]-phenyl}-4,4-dimethyl-5-oxo-2-thioxo-imidazolidin-1-yl)-2-trifluoromethyl-benzonitrile]", "IC50": 0.39}
{"smiles": "CNC(=O)C(C)(C)CCc1ccc(N2C(=S)N(c3ccc(C#N)c(OC)c3F)C(=O)C23CCC3)cc1", "note": "[Example 26, 4-{4-[7-(4-Cyano-2-fluoro-3-methoxy-phenyl)-8-oxo-6-thioxo-5,7-diaza-spiro[3.4]oct-5-yl]-phenyl}-2,2,N-trimethyl-butyramide]", "IC50": 0.97}
{"smiles": "CNC(=O)CCCc1ccc(N2C(=S)N(c3cc(C(F)(F)F)c(C#N)cc3F)C(=O)C2(C)C)cc1", "note": "[Example 6, 4-(4-(3-(4-cyano-2-fluoro-5-(trifluoromethyl)phenyl)-5,5-dimethyl-4-oxo-2-thioxoimidazolidin-1-yl)phenyl)-N-methylbutanamide]", "IC50": 4.75}
{"smiles": "CC1(C)C(=O)N(c2ccc(C#N)c(C(F)(F)F)c2F)C(=S)N1c1ccc(CCCc2ncco2)nc1", "note": "[Example 63, 4-{4,4-Dimethyl-3-[6-(3-oxazol-2-yl-propyl)-pyridin-3-yl]-5-oxo-2-thioxo-imidazolidin-1-yl}-3-fluoro-2-trifluoromethyl-benzonitrile]", "IC50": 0.1}
{"smiles": "CNC(=O)COCc1ccc(N2C(=S)N(c3ccc(C#N)c(C(F)(F)F)c3F)C(=O)C2(C)C)cc1", "note": "[Example 17, 2-((4-(3-(4-cyano-2-fluoro-3-(trifluoromethyl)phenyl)-5,5-dimethyl-4-oxo-2-thioxoimidazolidin-1-yl)benzyl)oxy)-N-methylacetamide]", "IC50": 0.53}
{"smiles": "N#CCCCc1ccc(N2C(=S)N(c3ccc(C#N)c(Cl)c3F)C(=O)C23CCC3)cc1", "note": "[Example 43, 2-chloro-4-(5-(4-(3-cyanopropyl)phenyl)-8-oxo-6-thioxo-5,7-diazaspiro[3.4]octan-7-yl)-3-fluorobenzonitrile]", "IC50": 0.59}
{"smiles": "CC1(C)C(=O)N(c2ccc(C#N)c(C(F)(F)F)c2F)C(=S)N1c1ccc(CCCC(=O)N2CCOCC2)c(F)c1", "note": "[Example 58, 3-fluoro-4-(3-(3-fluoro-4-(4-morpholino-4-oxobutyl)phenyl)-4,4-dimethyl-5-oxo-2-thioxoimidazolidin-1-yl)-2-(trifluoromethyl)benzonitrile]", "IC50": 0.53}
